Source: patent publication US11001591B2, “TRAF 6 inhibitors” (HELMHOLTZ ZENTRUM MUENCHEN—DEUTSCHES FORSCHUNGSZENTRUM FÜR …, priority 2016, dated 2021)

How the values were obtained:
[1] = system: Collagen-Induced Arthritis, DBA1/J mice; assay: Collagen-Induced Arthritis (CIA) model; type: in vivo, mouse
Description: In order to test the potential of C25-140 to ameliorate RA symptoms, a Collagen-Induced Arthritis (CIA) Model in DBA1/J mice was performed by Washington Biotechnology, Inc. (Baltimore, USA). Each group of ten mice was subjected to a single subcutaneous injection of collagen/complete Freund's Adjuvant emulsion (0.05 ml/mouse; 100 μg collagen/CFA). After 20 days (day 21), mice were booster injected with collagen (0.05 ml/mouse; 100 μg/mouse collagen in Incomplete Freund's Adjuvant). On day 28, mice were scored for their Arthritic Index (AI) and 14 days intraperitoneally dosed twice daily with 6 mg/kg, 10 mg/kg and 14 mg/kg C25-140, respectively. Mice were scored of macroscopic signs of arthritis daily. Thereby, the following scoring index was applied to each individual paw: 0=no visible effects of arthritis; 1=edema and/or erythema of 1 digit; 2=edema and/or erythema of 2 digits; 3=edema and/or erythema of more than 2 digits; 4=severe arthritis of entire paw and digits. Single paw scores were added and recorded. On day 42, animals were euthanized, limbs were collected and histopathology was performed using Toluidine blue staining with scoring of several parameters.

MDM2 = molecular target: T1, MDM2 (Homo sapiens, UniProt Q00987); assay: In vitro ubiquitination assay, MDM2; type: biochemical; details: K48 chain formation
T1 construct: purchased Boston Biochem one of K-102, K-260, K-200B, K-220, K-240, K-270
Description: For analysis of clAP1, MDM2, TRIM63, RNF4, ITCH and E6AP mediated poly-ubiquitination, the respective ubiquitin ligase kit from Boston Biochem (K-102, K-260, K-200B, K-220, K-240 and K-270) was used. Here, reaction buffer, E1, E2 and E3 enzyme (and p53 substrate in case of MDM2) were mixed and pre-incubated with compound or DMSO for 5 minutes at room temperature before adding Mg^2+-ATP and mono-ubiquitin for reaction start. Ubiquitination was visualized by Western Blot analyses.

Plasma stability = type: in vitro ADME
Description: (§1) All ADME (plasma stability, plasma protein binding, microsomal stability, Log D, Caco-2 assay, CYP450 inhibition and hERG predictor assay) as well as pharmacokinetic studies (Tmax, Cmax, AUC0-240 min, Mean Residence Time, Elimination half life, Elimination rate constant, Volume of Distribution and Clearance) of C25-140 (compound 3) were conducted by Bienta Enamine Biology Services of Bienta/Enamine Ltd.

NF-κB = assay: EMSA NF-κB activation in Jurkat T-cells; type: cell-based, human; details: PMA/Ionomycin
Description: For compound treatment, MEF cells were seeded in 6 well plates at 1.2×10^5 cells/well the day before treatment. Jurkat T-cells were seeded directly before treatment at 2×10^5 cells/sample. Six hours after compound or DMSO treatment cells were stimulated as indicated. Thereby, MEF cells were left untreated or stimulated with recombinant mouse IL-1β (1 ng/mL) or TNFα (10 ng/mL) for 20 minutes. Jurkat T-cells were stimulated with Phorbol-12-myristat-13-acetet (PMA) (400 ng/mL) and lonomycin (600 ng/mL) for 30 minutes. Eventually, cells were lysed in high-salt lysis buffer (20 mM HEPES pH 7.9; 350 mM NaCl; 1 mM MgCl2; 0.5 mM EDTA; 0.1 mM EGTA; 20% Glycerol; 1% NP-40; 10 mM NaF; 8 mM β-Glycerophosphate; 1 mM DTT; 300 μM Sodium-vanadate; complete protease inhibitor) and analyzed in EMSA assays using H2K (NF-κB) or Oct-1 (loading control) probes.

[2] = system: MEF, HepG2 and Jurkat cells; assay: Cell viability, CellTiter-Glo 2.0; type: cell-based
Description: For cell viability experiments using the CellTiter-Glo® 2.0 system (Promega), MEF cells (1.2×10^3 cells/well), HepG2 cells (4×10^3 cells/well) and Jurkat T-cells (5×10^3 cells/well) were seeded in 384 well plates. After 18 hours, cells were treated with compounds using the Sciclone G3 automation system. After 6 or 24 hours incubation, the luciferase measurement was performed according to the manufacturer's manual.

IL-2 and TNFα [3] = assay: ELISA cytokine secretion of Jurkat T-cells; type: cell-based, human; details: PMA/Ionomycin
Description: For measurement of cytokine secretion, 2×10^5 Jurkat T-cells or primary CD4^+ T-cells or human PBMCs per sample were seeded, treated with compound for 6 hours and stimulated as indicated. 20 hours after stimulation, supernatants were harvested and analyzed with the IL-2, IL-1β and TNFα Ready-Set-Go! ELISA (2nd Generation) kits provided by Affymatrix eBioscience.

IL-2 and TNFα [4] = assay: mRNA expression of TCR target genes in Jurkat T-cells; type: cell-based, human; details: PMA/Ionomycin
Description: For MEF cells, 1.2×10^5 cells per sample were seeded, treated with compound for 6 hours and stimulated with either IL-1β or TNFα for 60 minutes. Jurkat T-cells and primary mouse CD4^+ T-cells were seeded at 2×10^5 cells per sample, also treated with compound for 6 hours and stimulated with PMA/lonomycin for 3 hours. RNA was isolated according to the manufacturer's protocol of the Qiagen RNeasy Kit (MEF cells) or the STRATEC INVITRAP® SPIN UNIVERSAL RNA MINI KIT (Jurkat T-cells). The isolation of mRNA from […] white adipose tissue from DIO mice was performed using TRIzol® Reagent according to manufacturer's instruction. To clear the isolated RNA from genomic DNA, samples (up to 5 μg RNA) were treated with RQ1 RNase-Free DNaseI (Promega) as described in the technical manual. For the reverse transcription of RNA into cDNA, the DNaseI digested RNA samples were processed using the SuperScript III First Strand cDNA Synthesis System (Invitrogen/ThermoFisher Scientific) following the manufacturer's protocol. […] For quantification of cDNA in the samples, the LightCylcer480 (Roche) and the KAPA SYBR FAST qPCR Kit were used. For relative quantification, the ΔΔCp method first described by Pfaffl (Pfaffl, M. W., A new mathematical model for relative quantification in real-time RT-PCR. Nucleic Acids Res, 2001. 29(9): p. e45) was applied.

[5] = system: TRAF6 auto-ubiquitination; assay: TRAF6 auto-ubiquitination in Jurkat T-cells; type: cell-based, human; details: PMA/Ionomycin
plasma protein = assay: Plasma protein binding; type: in vitro ADME
Description: as §1

T1 sequence (Q00987 whole entry): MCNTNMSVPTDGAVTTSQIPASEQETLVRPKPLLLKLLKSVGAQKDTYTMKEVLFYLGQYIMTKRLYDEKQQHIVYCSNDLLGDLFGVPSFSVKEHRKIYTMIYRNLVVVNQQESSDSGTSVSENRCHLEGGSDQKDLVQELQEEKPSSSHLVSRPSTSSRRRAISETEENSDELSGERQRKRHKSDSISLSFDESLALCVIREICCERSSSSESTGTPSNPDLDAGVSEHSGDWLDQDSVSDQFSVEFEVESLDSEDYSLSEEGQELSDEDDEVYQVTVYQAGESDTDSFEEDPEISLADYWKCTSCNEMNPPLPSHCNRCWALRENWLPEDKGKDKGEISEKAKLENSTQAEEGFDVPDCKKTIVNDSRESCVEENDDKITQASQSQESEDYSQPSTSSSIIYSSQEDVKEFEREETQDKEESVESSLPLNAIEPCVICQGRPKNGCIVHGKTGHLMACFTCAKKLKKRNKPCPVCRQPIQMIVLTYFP

Cc1nn(-c2ccc3nnc(C)n3n2)c(C)c1CCC(=O)N1CCC(Cc2ccccc2)CC1 [Compound 3, 1-(4-benzylpiperidin-1-yl)-3-(3,5-dimethyl-1-(3-methyl-[1,2,4]triazolo[4,3-b]pyridazin-6-yl)-1H-pyrazol-4-yl)propan-1-one]
arthritic index (AI) ([1]; 10 mg/kg and 14 mg/kg IP twice daily, 14 days): almost completely ameliorated | histology of limbs (summed scores, inflammation, pannus, cartilage damage, bone resorption) ([1]; 6, 10, 14 mg/kg IP twice daily): dose-dependently improves | body weight ([1]; throughout the study): did not show any signs of reduction | p53 ubiquitination by MDM2 (MDM2): not affected | plasma stability (Plasma stability): stable | NF-κB activation (NF-κB): attenuated | cell viability at highest dose ([2]; 100 μM, 24 hours): toxicity is noticeable | metabolic activity and cell viability ([2]; up to 50 μM, 24 hours incubation, MEF, HepG2, Jurkat): does not considerably affect | cytokine secretion of IL-2 and TNFα (IL-2 and TNFα [3]): dose-dependently decreased | mRNA levels of IL-2 and TNFα (IL-2 and TNFα [4]): dose-dependently decreased | TRAF6 auto-ubiquitination upon TCR stimulation [5]: dose-dependently reduced | plasma protein binding (plasma protein): decent good plasma protein binding capacity
